From PMC10472371, “Discovery of E2730, a novel selective uncompetitive GAT1 inhibitor, as a candidate for anti‐seizure medication” (Epilepsia Open, 2023)
“Also recorded” adds a separate entry of the source.

Assays:
hGAT1 = target: T1, hGAT1 (Homo sapiens, UniProt P30531); assay: [3H]GABA uptake in hGAT1 cells under different GABA concentrations; format: cell-based; conditions: [3H]GABA 0.01-500 μM
T1 construct: expressed in transfected cells; host or cells: HEK293
Protocol: hGAT1 stably expressing HEK293 cells were plated onto 96‐well microtiter plates at a density of 4.0 × 10^4 cells/well in DMEM and incubated overnight at 37°C in a 5% CO2 atmosphere. After washing the cells with assay buffer, E2730 (0.0128–1000 μM), tiagabine (Tokyo Chemical Industry; 0.000256–100 μM), or vehicle was added to the plate in the presence of 1% DMSO. After adding [^3H]GABA (0.01–500 μM), the plate was incubated for 5 minutes at 37°C in a 5% CO2 atmosphere. The radioactivity of the treated cells was assessed following the same method described above.

[1] = target: T2, hGABAAR (containing α1, β3, and γ2 subunits) (Homo sapiens, UniProt P14867+P18507+P28472); assay: GABA-induced current in hGABAAR-expressing HEK-293 cells, whole-cell patch-clamp; format: cell-based; conditions: up to 100 μM
T2 construct: expressed in transfected cells; host or cells: HEK-293
Protocol: Data represent the mean ± SEM of 3 independent experiments. Control response is GABA (13 μM)-induced current amplitude. […] Cells in voltage clamp were maintained at -80 mV throughout the experiments following the voltage protocol.

[2] = system: 6 Hz-44 mA psychomotor seizure mice; assay: Pharmaco-resistant 6 Hz-44 mA psychomotor seizures in mice; format: in vivo, mouse; conditions: Mus musculus; oral, 1 hour before electrostimulation, ddY mice; read-out: ED50 (95% CI), 6 Hz-44 mA psychomotor seizures
Protocol: Psychomotor seizures were stimulated by applying currents (44 mA, 6 Hz, 0.2 millisecond rectangular pulse width, 3‐second duration each) via a corneal electrode (SEN‐7203; Nihon Kohden). E2730 (5–50 mg/kg), levetiracetam (Tokyo Chemical Industry; 20–200 mg/kg), or vehicle was orally administered to ddY mice (male, 5 weeks old; Japan SLC Inc.) 1 hour before electrostimulation. […] Behavioral seizures observed in mice were classified into the following four types: stun, forelimb clonus, twitching of the vibrissae, and Straub‐tail.

[3] = system: panel of 86 receptors, transporters, and ion channels; assay: Binding panel assay; conditions: tested at 30 and 300 μM
Protocol: In this binding panel assay, E2730 was tested at 30 and 300 μM.

[4] = Accelerating rotarod test in mice (motor coordination); conditions: male, ddY, mouse, in vivo, oral, 1 hour before test, read-out: TD50 (95% CI) in mouse rotarod test
Protocol: Motor incoordination is one of the most common AEs associated with the use of ASMs.[9] Therefore, motor coordination was evaluated in mice receiving E2730 to assess if it is a new ASM candidate with a wide margin between therapeutic effects and AEs. E2730 (50–400 mg/kg) or vehicle was orally administered in ddY mice (male, 5 weeks old) 1 hour before the rotarod test, and the latency for mice to fall off the rod was measured. The rod rotation of the rotarod apparatus (Muromachi Kikai) was continuously accelerated from 0 to 40 rpm in a cut‐off time of 180 seconds.

hNav1.2 = target: T3, hNav1.2 (Homo sapiens, UniProt Q99250); assay: Veratridine-induced hNav1.2 activation in CHO cells, membrane potential assay; format: cell-based; conditions: up to 100 μM, veratridine 50 μM
T3 construct: expressed in transfected cells; host or cells: CHO
Protocol: Data represent the mean ± SEM of three independent experiments. Effects of E2730 and desipramine (Sigma-Aldrich, MO) on hNav1.2 activity were evaluated in CHO cells stably expressing hNav1.2 using a fluorescent-based membrane potential assay (Molecular Devices, CA). Activation of hNav1.2 was induced by veratridine (50 μM) and the change of fluorescence (excitation wavelength, 480 nm; emission wavelength, 540 nm) was recorded using Fluorescence Drug Screening System 6000 (Hamamatsu Photonics, Japan).

Scn1a+/- mice = assay: Hyperthermia-induced seizures in Scn1a+/- mice (Dravet syndrome model); format: in vivo, mouse
Protocol: Scn1a heterozygous mutant (Scn1a ^+/−) mice, a model of Dravet Syndrome (DS), and the littermate wild‐type (Scn1a ^+/+) mice (male, 24–28 days postnatal; Jackson Laboratory, US) received E2730 (10, 20 mg/kg) or vehicle orally 1 hour before hyperthermia stimulation. A rectal temperature probe (Physitemp, NJ) was fitted at 50 minutes post‐treatment, and mice were acclimated to the probe and test chamber for 10 minutes. At 1‐hour post‐treatment, core body temperature was elevated by a heat lamp connected to a feedback temperature controller (Physitemp) by 0.5°C every 2 minutes until a maximum of 42.5°C was reached. The threshold body temperatures for generalized tonic–clonic seizures were recorded for each mouse. The cut‐off time was set as 180 seconds.

T2 sequence (P14867 28-456): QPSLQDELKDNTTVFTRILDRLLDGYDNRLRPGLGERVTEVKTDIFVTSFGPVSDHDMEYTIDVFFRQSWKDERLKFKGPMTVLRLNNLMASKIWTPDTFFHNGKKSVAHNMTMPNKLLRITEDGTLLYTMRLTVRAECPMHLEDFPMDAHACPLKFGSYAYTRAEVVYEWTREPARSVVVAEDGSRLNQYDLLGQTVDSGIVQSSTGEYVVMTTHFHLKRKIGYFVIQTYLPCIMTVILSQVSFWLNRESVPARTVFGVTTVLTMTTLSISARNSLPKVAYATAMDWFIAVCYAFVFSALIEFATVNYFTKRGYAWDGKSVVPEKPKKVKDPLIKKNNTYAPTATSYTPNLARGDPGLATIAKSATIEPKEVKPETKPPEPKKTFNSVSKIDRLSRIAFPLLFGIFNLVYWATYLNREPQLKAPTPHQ
T2 sequence (P28472 26-473): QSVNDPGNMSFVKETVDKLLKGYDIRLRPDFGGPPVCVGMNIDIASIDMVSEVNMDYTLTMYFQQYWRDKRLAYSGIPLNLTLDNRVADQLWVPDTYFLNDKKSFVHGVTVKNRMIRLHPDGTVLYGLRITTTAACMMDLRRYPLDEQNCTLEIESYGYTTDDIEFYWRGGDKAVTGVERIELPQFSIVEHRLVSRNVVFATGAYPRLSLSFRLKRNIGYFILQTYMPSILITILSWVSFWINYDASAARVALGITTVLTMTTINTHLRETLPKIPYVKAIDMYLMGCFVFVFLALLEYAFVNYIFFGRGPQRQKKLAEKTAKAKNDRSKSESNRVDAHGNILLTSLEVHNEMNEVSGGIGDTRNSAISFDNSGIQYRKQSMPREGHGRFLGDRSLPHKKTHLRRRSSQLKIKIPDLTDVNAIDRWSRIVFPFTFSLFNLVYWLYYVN
T2 sequence (P18507 40-475): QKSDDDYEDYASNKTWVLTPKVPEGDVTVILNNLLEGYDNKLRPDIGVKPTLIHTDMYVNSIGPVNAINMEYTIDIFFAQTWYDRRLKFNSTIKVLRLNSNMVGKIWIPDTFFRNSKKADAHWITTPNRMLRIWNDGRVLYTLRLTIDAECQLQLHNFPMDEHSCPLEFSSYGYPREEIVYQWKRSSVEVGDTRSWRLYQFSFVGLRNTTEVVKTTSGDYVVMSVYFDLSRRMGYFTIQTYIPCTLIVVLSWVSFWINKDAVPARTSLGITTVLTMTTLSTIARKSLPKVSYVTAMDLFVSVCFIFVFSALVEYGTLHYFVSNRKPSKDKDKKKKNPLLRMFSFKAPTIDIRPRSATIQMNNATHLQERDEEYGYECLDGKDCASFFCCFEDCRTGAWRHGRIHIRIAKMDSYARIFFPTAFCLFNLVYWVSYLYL
T3 sequence (Q99250 whole entry): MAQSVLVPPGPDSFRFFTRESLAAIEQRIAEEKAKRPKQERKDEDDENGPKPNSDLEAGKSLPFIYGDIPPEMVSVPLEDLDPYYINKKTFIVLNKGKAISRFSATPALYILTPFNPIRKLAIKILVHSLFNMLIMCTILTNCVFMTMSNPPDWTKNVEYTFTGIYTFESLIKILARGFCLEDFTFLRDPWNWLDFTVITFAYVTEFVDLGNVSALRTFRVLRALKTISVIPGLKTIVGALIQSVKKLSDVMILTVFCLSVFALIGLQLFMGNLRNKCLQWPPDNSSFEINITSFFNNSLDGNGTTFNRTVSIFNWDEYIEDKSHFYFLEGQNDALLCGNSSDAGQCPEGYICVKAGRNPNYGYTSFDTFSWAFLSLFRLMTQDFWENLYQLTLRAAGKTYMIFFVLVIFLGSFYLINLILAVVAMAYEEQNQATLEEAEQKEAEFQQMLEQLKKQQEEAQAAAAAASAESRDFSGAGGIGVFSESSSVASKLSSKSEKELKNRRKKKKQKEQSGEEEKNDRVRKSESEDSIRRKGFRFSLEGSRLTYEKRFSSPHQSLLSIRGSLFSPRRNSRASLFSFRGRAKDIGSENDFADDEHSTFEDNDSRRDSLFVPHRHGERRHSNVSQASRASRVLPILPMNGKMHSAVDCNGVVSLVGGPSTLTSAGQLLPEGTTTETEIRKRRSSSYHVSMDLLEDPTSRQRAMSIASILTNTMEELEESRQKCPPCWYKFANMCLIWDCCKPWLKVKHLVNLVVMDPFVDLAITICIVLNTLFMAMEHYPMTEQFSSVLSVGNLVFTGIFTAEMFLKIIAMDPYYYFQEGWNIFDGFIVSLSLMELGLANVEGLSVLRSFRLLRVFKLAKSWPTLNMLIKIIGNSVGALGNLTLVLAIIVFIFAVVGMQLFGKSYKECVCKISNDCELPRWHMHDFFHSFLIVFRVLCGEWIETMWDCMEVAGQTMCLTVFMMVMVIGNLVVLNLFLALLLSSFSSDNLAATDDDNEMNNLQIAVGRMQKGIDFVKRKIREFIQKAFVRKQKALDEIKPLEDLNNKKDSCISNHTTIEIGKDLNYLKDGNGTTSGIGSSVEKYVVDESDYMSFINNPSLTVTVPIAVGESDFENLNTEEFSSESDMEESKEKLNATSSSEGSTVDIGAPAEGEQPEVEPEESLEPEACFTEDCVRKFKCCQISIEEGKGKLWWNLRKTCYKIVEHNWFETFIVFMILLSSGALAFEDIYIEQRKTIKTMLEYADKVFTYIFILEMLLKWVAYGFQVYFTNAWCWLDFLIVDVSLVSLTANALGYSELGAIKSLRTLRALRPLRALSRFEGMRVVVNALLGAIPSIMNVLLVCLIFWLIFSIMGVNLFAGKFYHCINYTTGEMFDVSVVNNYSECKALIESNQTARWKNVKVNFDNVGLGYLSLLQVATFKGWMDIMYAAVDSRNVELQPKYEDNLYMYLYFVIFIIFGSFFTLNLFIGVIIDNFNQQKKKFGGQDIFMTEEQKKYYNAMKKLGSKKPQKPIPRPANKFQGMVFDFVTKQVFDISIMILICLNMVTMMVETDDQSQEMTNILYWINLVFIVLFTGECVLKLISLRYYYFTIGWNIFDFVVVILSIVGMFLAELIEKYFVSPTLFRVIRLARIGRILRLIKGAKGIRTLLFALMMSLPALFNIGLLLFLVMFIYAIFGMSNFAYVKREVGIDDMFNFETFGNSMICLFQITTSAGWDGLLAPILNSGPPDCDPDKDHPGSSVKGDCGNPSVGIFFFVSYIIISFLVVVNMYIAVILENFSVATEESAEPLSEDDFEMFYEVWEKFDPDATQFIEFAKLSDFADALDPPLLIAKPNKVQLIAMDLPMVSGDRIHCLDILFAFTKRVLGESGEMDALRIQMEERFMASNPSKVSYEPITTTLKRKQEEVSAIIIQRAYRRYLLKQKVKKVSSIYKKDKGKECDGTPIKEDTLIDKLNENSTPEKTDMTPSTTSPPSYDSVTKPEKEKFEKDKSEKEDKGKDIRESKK
T1 sequence (P30531 whole entry): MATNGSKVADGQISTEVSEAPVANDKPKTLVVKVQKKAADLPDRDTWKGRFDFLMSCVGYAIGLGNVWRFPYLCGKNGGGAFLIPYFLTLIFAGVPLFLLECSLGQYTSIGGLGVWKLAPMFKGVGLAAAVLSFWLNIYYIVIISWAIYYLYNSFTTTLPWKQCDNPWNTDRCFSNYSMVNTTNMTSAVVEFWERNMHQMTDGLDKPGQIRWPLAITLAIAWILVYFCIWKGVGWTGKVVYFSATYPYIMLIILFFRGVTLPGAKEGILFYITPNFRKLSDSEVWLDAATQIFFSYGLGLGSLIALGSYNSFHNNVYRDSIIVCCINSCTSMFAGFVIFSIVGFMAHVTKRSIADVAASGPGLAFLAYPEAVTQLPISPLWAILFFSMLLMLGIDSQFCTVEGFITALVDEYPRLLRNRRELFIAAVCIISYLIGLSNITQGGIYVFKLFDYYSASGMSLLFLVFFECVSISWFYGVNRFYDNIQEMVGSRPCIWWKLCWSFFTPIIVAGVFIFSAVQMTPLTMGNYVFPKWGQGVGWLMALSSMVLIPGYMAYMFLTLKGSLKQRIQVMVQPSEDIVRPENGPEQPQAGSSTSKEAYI

For NS(=O)(=O)N[C@H]1c2c(F)cc(F)cc2CC1(F)F [E2730], the “dependence of GAT1 inhibition on ambient GABA concentration” value (hGAT1) was “positively correlated with the ambient GABA concentration”, the “effect on GABA-induced current” value [1] was “did not directly affect” and the ED50 [2] was 17 mg/kg. The “binding in panel assay” value [3] was “no significant binding”, the TD50 at 1 h [4] was 350 mg/kg and the “effect on hNav1.2 activation” value (hNav1.2) was “did not inhibit; also recorded: did not directly affect”. The “seizure occurrence in littermate WT (Scn1a+/+) mice” value (Scn1a+/- mice; 20 mg/kg, maximum temperature of 42.5°C) was “No seizures occurred”, the “median threshold body temperature for generalized tonic-clonic seizures” value (Scn1a+/- mice; Scn1a+/- mice, 10 mg/kg oral) was 41.2 °C and the “median threshold body temperature for generalized tonic-clonic seizures” value (Scn1a+/- mice; Scn1a+/- mice, 20 mg/kg oral) was 42.4 °C. For the same compound, the “Minimum effective dose, hyperthermia-induced seizures” value (Scn1a+/- mice; Scn1a+/- mice, oral, footnote a: minimum effective dose) was 10 mg/kg.
